Experimental findings from PubChem BioAssay (NCI) are described below.

“And” between values parts separate entries of the source, which are not always exact repeats. Identical values can stand only once.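 Test compounds were applied to cells in 96-well plates for 48 hours at 5 doses. GI50 = concentration required for 50% inhibition of growth. At the TGI there is no net growth.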

Test systems include SNB-75 CNS; RXF 393 renal; KM12 colon; HT29 colon; OVCAR-3 ovarian; EKVX NSCLC; MALME-3M melanoma; SK-MEL-28 melanoma; DU-145 prostate; MDA-MB-435.
Assay in all cases: inhibition of tumour cell growth, NCI panel, 48 h

Take `CC(=O)[CH-]C(=O)c1ccccc1.CC(=O)[CH-]C(=O)c1ccccc1.CC(=O)[CH-]C(=O)c1ccccc1.[Tl+3]`: the GI50 in the assay with SNB-75 CNS is 48.1 µM; in the assay with RXF 393 renal, 56.2 µM; in the assay with KM12 colon, 42.8 µM; in the assay on HT29 colon, 57.1 µM; with OVCAR-3 ovarian, 24.1 µM; in the assay with EKVX NSCLC it was 31.8 µM. Also, the values for the GI50 in the assay with MALME-3M melanoma and in the assay with SK-MEL-28 melanoma were 20.2 µM and 74.3 µM, respectively. Further, the TGI in the assay with SNB-75 CNS was above 100 µM; in the assay with RXF 393 renal, above 100 µM; in the assay with KM12 colon it was above 100 µM; in the assay on HT29 colon, above 100 µM; with OVCAR-3 ovarian, above 75.5 µM; with EKVX NSCLC, above 100 µM. For the same compound, the values for the TGI with MALME-3M melanoma and with SK-MEL-28 melanoma were 49.2 µM and above 100 µM, respectively.

Turning to `Cc1cc(O)c(C(=O)CC2(O)C(=O)Nc3c(Cl)cc(Cl)cc32)c(=O)o1` (stereo not drawn), the TGI with SNB-75 CNS was 95.1 µM; with KM12 colon, above 100 µM; in the assay on HT29 colon, above 100 µM; with OVCAR-3 ovarian, above 100 µM; with EKVX NSCLC it was above 100 µM; in the assay with MALME-3M melanoma, above 100 µM. The compound also came in with a TGI with SK-MEL-28 melanoma above 100 µM.

Consider `FC(F)(F)c1cccc(COCCN2CCN(Cc3cccc(C(F)(F)F)c3)CC2)c1`, for which the TGI with SNB-75 CNS was found to be 26.3 µM; with DU-145 prostate, 32.4 µM; in the assay on KM12 colon, 35.8 µM; in the assay on HT29 colon, 44.6 µM; in the assay on OVCAR-3 ovarian it was 42.9 µM; in the assay on EKVX NSCLC, 23.4 µM. Further, the values for the TGI in the assay with MALME-3M melanoma and with SK-MEL-28 melanoma were 22.5 µM and 34.6 µM, respectively.

Take `N/N=C(\CC1OC(=O)c2ccccc21)c1ccco1` (stereo not drawn): the TGI in the assay with SNB-75 CNS, in the assay with RXF 393 renal, in the assay with KM12 colon, with HT29 colon, in the assay with OVCAR-3 ovarian and with EKVX NSCLC was above 100 µM in each case. Further, the TGI in the assay with MALME-3M melanoma and with SK-MEL-28 melanoma was above 100 µM in each case.

In the case of `CC(=O)OCC1OC(OC2CC3C(C)(C)C(OC(C)=O)CC[C@]3(C)C3CCC45CC4(CC[C@H]5C(C)CC(O)[C@@H](O)C(C)(C)O)[C@]23C)C(O)C(O)C1O` (stereo partly drawn), the GI50 in the assay on SNB-75 CNS is 5.04 µM; with KM12 colon, 4.36 µM; in the assay on HT29 colon, 3.37 µM; in the assay on EKVX NSCLC it was 15.8 µM; with MALME-3M melanoma, 13.2 µM; with SK-MEL-28 melanoma it was 5.21 µM. The TGI in the assay with SNB-75 CNS was 12 µM and 16.8 µM; in the assay on RXF 393 renal it was 13.9 µM; with KM12 colon, 14.2 µM and 14.1 µM; in the assay with HT29 colon it was 14.3 µM and 10.6 µM; in the assay with OVCAR-3 ovarian, 13.3 µM and 19.3 µM; in the assay on EKVX NSCLC, 13.1 µM and 29.2 µM. The TGI in the assay with MALME-3M melanoma is 13.9 µM and 26 µM; in the assay on SK-MEL-28 melanoma it was 13.7 µM and 17.8 µM.

For the compound `Clc1ccc(-n2nnc(C3=NCCCN3)c2-c2ccccc2)cc1`, the TGI in the assay with SNB-75 CNS, in the assay on RXF 393 renal, in the assay with KM12 colon, in the assay on HT29 colon, in the assay on OVCAR-3 ovarian and in the assay with EKVX NSCLC was above 100 µM in each case. Further, the TGI in the assay on MALME-3M melanoma and in the assay with SK-MEL-28 melanoma was above 100 µM in each case.

With `COc1ccc(/C=C2\CN(C(=O)C(Cl)Cl)C/C(=C\c3ccc(OC)c(OC)c3)C2=O)cc1OC`, the GI50 with SNB-75 CNS was 0.651 µM; in the assay with RXF 393 renal, 0.209 µM; with KM12 colon, 0.0987 µM; with HT29 colon, 0.0781 µM; with EKVX NSCLC, 0.366 µM; in the assay on MDA-MB-435, 0.0528 µM. Further, the TGI in the assay with SNB-75 CNS was above 100 µM; in the assay on RXF 393 renal, 0.492 µM; in the assay on KM12 colon, 0.332 µM; in the assay on EKVX NSCLC it was 1.87 µM; with MDA-MB-435, 0.265 µM.

`O=[N+]([O-])c1ccc(Sc2c3ccccc3nc3ccccc23)cc1`: the TGI in the assay on SNB-75 CNS, in the assay on RXF 393 renal, with KM12 colon, in the assay on HT29 colon, in the assay with OVCAR-3 ovarian and with EKVX NSCLC was above 100 µM throughout. Further, the TGI in the assay on MALME-3M melanoma and in the assay with SK-MEL-28 melanoma was above 100 µM in each case.

Take `C1CNCCNCCNCCN1`: the TGI in the assay with SNB-75 CNS, in the assay with RXF 393 renal, in the assay on KM12 colon, with HT29 colon, in the assay with OVCAR-3 ovarian and in the assay on EKVX NSCLC was above 100 µM throughout. Besides, the TGI in the assay on MALME-3M melanoma and in the assay with SK-MEL-28 melanoma was above 100 µM each time.

As to `COc1ccc(C(=O)C(c2ccc(OC)cc2)C2(O)C(=O)Nc3c(C)cc(Cl)cc32)cc1` (stereo not drawn), the TGI with SNB-75 CNS, in the assay with RXF 393 renal, with KM12 colon, with HT29 colon, in the assay on OVCAR-3 ovarian and in the assay with EKVX NSCLC was above 100 µM throughout. The TGI in the assay on MALME-3M melanoma and with SK-MEL-28 melanoma was above 100 µM each time.

Take `CN(C)NC1=NS(=O)(=O)c2cc3c(cc2S1)N(N(C)C)C(=O)c1cc2c(cc1N(N(C)C)C3=O)SC(NN(C)C)=NS2(=O)=O`: the TGI in the assay with SNB-75 CNS, with RXF 393 renal, in the assay with DU-145 prostate, with KM12 colon, in the assay on HT29 colon and in the assay with OVCAR-3 ovarian was above 10 µM throughout. For the same compound, the TGI in the assay on EKVX NSCLC, in the assay on MALME-3M melanoma and in the assay on SK-MEL-28 melanoma was above 10 µM throughout.

For the compound `CC(C)=CC(=O)Oc1ccc([N+](=O)[O-])cc1`, the TGI in the assay on SNB-75 CNS, in the assay with RXF 393 renal, in the assay with KM12 colon, in the assay on HT29 colon, in the assay with OVCAR-3 ovarian and in the assay with EKVX NSCLC was above 100 µM each time. Moreover, the TGI in the assay with MALME-3M melanoma was above 100 µM.

Take `N#CCc1ccc(C(C#N)/C(CCCC(=O)Nc2cccc([N+](=O)[O-])c2)=N\NC(=O)NN)cc1` (stereo not drawn): the TGI in the assay with SNB-75 CNS, in the assay on RXF 393 renal, in the assay on KM12 colon, in the assay on HT29 colon, in the assay with OVCAR-3 ovarian and in the assay with EKVX NSCLC was above 100 µM in each case. Besides, the TGI in the assay with MALME-3M melanoma and in the assay on SK-MEL-28 melanoma was above 100 µM throughout.

Turning to `CC(=O)OCSc1ncnc2c1ncn2CN1CCOCC1`, the TGI was above 100 µM in the assay with SNB-75 CNS; above 100 µM with RXF 393 renal; above 100 µM in the assay with KM12 colon; 94.8 µM in the assay with HT29 colon; above 100 µM in the assay on OVCAR-3 ovarian; above 100 µM with EKVX NSCLC. For the same compound, the TGI in the assay on MALME-3M melanoma and with SK-MEL-28 melanoma was above 100 µM each time.
